Reference: patent publication US10508115B2, “Toll-like receptor 7 (TLR7) agonists having heteroatom-linked aromatic moieties, conjugates thereof, and methods and uses therefor” (BRISTOL-MYERS SQUIBB COMPANY, priority 2017, dated 2019)
pEC50: −log10 of the molar value.

biological target: human TLR7 (Homo sapiens (Human), UniProt Q9NYK1); test: HEK-Blue TLR7 reporter assay (TLR7 agonist activity); format: cell-based; details: HEK-Blue TLR7 cells, SEAP reporter, 18 h treatment; read-out: TLR7 Agonism (EC50)
Protocol: This example describes a method for assaying TLR7 agonist activity of the compounds disclosed in this specification.
HEK-Blue™ TLR7 cells were added to each well of a 384-well tissue-culture plate (15,000 cells per well) and incubated 16-18 h at 37° C., 5% CO2. Compounds (100 nl) were dispensed into wells containing the HEK-Blue™ TLR cells and the treated cells were incubated at 37° C., 5% CO2. After 18 h treatment ten microliters of freshly-prepared Quanti-Blue™ reagent (Invivogen) was added to each well, incubated for 30 min (37° C., 5% CO2) and SEAP levels measured using an Envision plate reader (OD=620 nm).

Chain of human TLR7 (Q9NYK1 27-1049): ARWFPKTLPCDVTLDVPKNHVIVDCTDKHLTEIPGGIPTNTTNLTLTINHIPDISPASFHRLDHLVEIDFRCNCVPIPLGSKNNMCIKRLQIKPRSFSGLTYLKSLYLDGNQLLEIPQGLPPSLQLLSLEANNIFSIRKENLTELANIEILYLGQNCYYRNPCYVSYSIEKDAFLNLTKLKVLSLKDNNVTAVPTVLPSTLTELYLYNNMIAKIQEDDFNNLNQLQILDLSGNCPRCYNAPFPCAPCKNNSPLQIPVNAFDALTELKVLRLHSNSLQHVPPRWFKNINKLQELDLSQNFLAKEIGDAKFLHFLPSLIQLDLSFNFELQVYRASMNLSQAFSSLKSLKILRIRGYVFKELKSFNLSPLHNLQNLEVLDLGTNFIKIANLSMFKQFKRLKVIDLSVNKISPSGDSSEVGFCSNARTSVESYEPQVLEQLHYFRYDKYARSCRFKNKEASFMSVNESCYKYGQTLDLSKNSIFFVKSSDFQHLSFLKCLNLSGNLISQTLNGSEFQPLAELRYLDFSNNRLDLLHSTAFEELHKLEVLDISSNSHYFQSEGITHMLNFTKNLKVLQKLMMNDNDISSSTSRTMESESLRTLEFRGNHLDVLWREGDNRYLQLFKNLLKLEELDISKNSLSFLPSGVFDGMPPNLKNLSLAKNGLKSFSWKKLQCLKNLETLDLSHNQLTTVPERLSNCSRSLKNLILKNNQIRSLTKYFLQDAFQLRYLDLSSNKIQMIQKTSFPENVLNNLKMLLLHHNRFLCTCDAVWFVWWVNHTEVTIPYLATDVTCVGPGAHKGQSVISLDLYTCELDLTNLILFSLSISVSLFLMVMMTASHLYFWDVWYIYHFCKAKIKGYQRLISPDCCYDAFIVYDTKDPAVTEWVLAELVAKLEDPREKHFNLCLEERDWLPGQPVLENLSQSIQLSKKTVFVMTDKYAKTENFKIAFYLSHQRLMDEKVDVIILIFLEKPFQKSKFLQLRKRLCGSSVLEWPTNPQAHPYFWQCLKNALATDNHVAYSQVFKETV

Compound | pEC50
CCCCOc1nc(N)c2nc(O)n(Cc3cccc(Oc4cccc(CNC5CCOCC5)c4)c3)c2n1 [IIa-04] | 6.95
CCCCOc1nc(N)c2nc(O)n(Cc3cccc(Oc4cccc(CNCc5ccncc5)c4)c3)c2n1 [IIa-11] | 6.37
CCCCOc1nc(N)c2nc(O)n(Cc3ccc(Oc4ccc(CO)cc4)cc3)c2n1 [Ia-01] | 7.85
CCCCOc1nc(N)c2nc(O)n(Cc3ccc(Oc4ccc(CNC)cc4)cc3)c2n1 [Ia-02] | 8.89
CCCCOc1nc(N)c2nc(O)n(Cc3ccc(Oc4ccc(CNCCOC)cc4)cc3)c2n1 [Ia-07] | 8.89
CCCCOc1nc(N)c2nc(O)n(Cc3ccc(Oc4ccc(CNCCO)cc4)nc3)c2n1 [Ib-06] | 9.04
CCCCOc1nc(N)c2nc(O)n(Cc3ccc(Oc4ccc(CNCCOC)cc4)nc3)c2n1 [Ib-07] | 9.21
CCCCOc1nc(N)c2nc(O)n(Cc3ccc(Oc4ccc(CNC5CC5)cc4)nc3)c2n1 [Ib-17] | 9.08
CCCCOc1nc(N)c2nc(O)n(Cc3ccc(Oc4cccc(CNCCO)n4)cc3)c2n1 [Ic-05] | 9.06
CCCCOc1nc(N)c2nc(O)n(Cc3ccc(Oc4cccc(CNCCOC)n4)cc3)c2n1 [Ic-06] | 8.55
CCCCOc1nc(N)c2nc(O)n(Cc3ccc(Oc4ccc(CNCCS(C)(=O)=O)cc4)c(F)c3)c2n1 [Ie-07] | 8.77

tested on: IFN-α; test: not given; details: fold less potent than corresponding purine-8-one compound; cited from earlier work

Compound | potency less than that of the corresponding purine-8-one compound, as measured by IFN-α induction [×]
CCCCOc1nc(N)c2c(n1)N(Cc1cccc(CN3CCCC3)c1)CC(=O)N2 [Vesatolimod, vesatolimod] | 100

tested on: interleukin 6 (IL-6); test: Interleukin 6 induction assay in human whole blood; format: cell-based; details: 37° C. for 20 h, AlphaLISA, read-out: IL6 Induction (EC50)
Protocol: This example describes a method for assaying interleukin 6 induction by compounds disclosed in this specification.
Compounds diluted in DMSO were transferred to individual wells of a Matrix Technologies clear, V-bottom 384-well plate using ECHO acoustic liquid handling technology (25 nL per well). Human whole-blood samples (25 uL) were added to each well using a CyBio FeliX liquid handling instrument. The plate was shaken on a plate shaker for three min before incubating the reaction mixtures at 37° C. for 20 h. Basel RPMI 1640 medium (supplemented with L-glutamine) was then added to each well (25 uL per well) prior to liberating plasma from each sample by centrifugation (450×g, 5 min, ambient temperature). Treated plasma samples (3 uL) were subsequently transferred to individual wells of a white, shallow, 384-well ProxiPlate (Perkin Elmer) using the FeliX liquid handling instrument and their interleukin 6 levels were measured using AlphaLISA technology as described by the manufacturer, PerkinElmer. Data analyses software was used to determine compound EC50 values where the baseline was established using average DMSO values and 100% induction established using reference compound values at the highest concentration tested. EC50's can be determined with software such as Graphpad Prism™.

Compound | pEC50
CCCCOc1nc(N)c2nc(O)n(Cc3ccc(Oc4ccc(CO)cc4)cc3)c2n1 [Ia-01] | 6.30
CCCCOc1nc(N)c2nc(O)n(Cc3ccc(Oc4ccc(CNC5CC5)cc4)cc3)c2n1 [Ia-03] | 7.75
CCCCOc1nc(N)c2nc(O)n(Cc3ccc(Oc4ccc(CNC5CCC5)cc4)cc3)c2n1 [Ia-04] | 7.98
CCCCOc1nc(N)c2nc(O)n(Cc3ccc(Oc4ccc(CNC5COC5)cc4)cc3)c2n1 [Ia-05] | 7.51
CCCCOc1nc(N)c2nc(O)n(Cc3ccc(Oc4ccc(CNCCO)cc4)cc3)c2n1 [Ia-06] | 7.76
CCCCOc1nc(N)c2nc(O)n(Cc3ccc(Oc4ccc(CNCCOC)cc4)cc3)c2n1 [Ia-07] | 8.18
CCCCOc1nc(N)c2nc(O)n(Cc3ccc(Oc4ccc(CNCc5ccccc5)cc4)cc3)c2n1 [Ia-08] | 7.61
CCCCOc1nc(N)c2nc(O)n(Cc3ccc(Oc4ccc(CO)cc4)nc3)c2n1 [Ib-01] | 6.98
CCCCOc1nc(N)c2nc(O)n(Cc3ccc(Oc4ccc(CNC)cc4)nc3)c2n1 [Ib-02] | 7.53
CCCCOc1nc(N)c2nc(O)n(Cc3ccc(Oc4ccc(CNC(C)C)cc4)nc3)c2n1 [Ib-03] | 8.12
CCCCOc1nc(N)c2nc(O)n(Cc3ccc(Oc4ccc(CNC5COC5)cc4)nc3)c2n1 [Ib-05] | 8.02
CCCCOc1nc(N)c2nc(O)n(Cc3ccc(Oc4ccc(CNCCO)cc4)nc3)c2n1 [Ib-06] | 7.97
CCCCOc1nc(N)c2nc(O)n(Cc3ccc(Oc4ccc(CNCCOC)cc4)nc3)c2n1 [Ib-07] | 8.24
CCCCOc1nc(N)c2nc(O)n(Cc3ccc(Oc4ccc(CNC5C6CC5C6)cc4)nc3)c2n1 (stereo not drawn) [Ib-09] | 8.23
CCCCOc1nc(N)c2nc(O)n(Cc3ccc(Oc4ccc(CNC5CC(F)(F)C5)cc4)nc3)c2n1 [Ib-10] | 7.84
CCCCOc1nc(N)c2nc(O)n(Cc3ccc(Oc4ccc(CNC5CCCC5)cc4)nc3)c2n1 [Ib-11] | 8.09
CCCCOc1nc(N)c2nc(O)n(Cc3ccc(Oc4ccc(CNCC(C)C)cc4)nc3)c2n1 [Ib-12] | 8.42
CCCCOc1nc(N)c2nc(O)n(Cc3ccc(Oc4ccc(CNCC(F)F)cc4)nc3)c2n1 [Ib-13] | 7.51
CCCCOc1nc(N)c2nc(O)n(Cc3ccc(Oc4ccc(CNCCS(C)(=O)=O)cc4)nc3)c2n1 [Ib-14] | 7.72
CCCCOc1nc(N)c2nc(O)n(Cc3ccc(Oc4ccc(CNCC5CC5)cc4)nc3)c2n1 [Ib-15] | 7.19
CCCCOc1nc(N)c2nc(O)n(Cc3ccc(Oc4ccc(CNCCC#N)cc4)nc3)c2n1 [Ib-16] | 7.07
CCCCOc1nc(N)c2nc(O)n(Cc3ccc(Oc4ccc(CNC5CC5)cc4)nc3)c2n1 [Ib-17] | 8.29
CCCCOc1nc(N)c2nc(O)n(Cc3ccc(Oc4cccc(CNCC(C)C)n4)cc3)c2n1 [Ic-01] | 8.00
CCCCOc1nc(N)c2nc(O)n(Cc3ccc(Oc4cccc(CNC5CCC5)n4)cc3)c2n1 [Ic-02] | 7.79
CCCCOc1nc(N)c2nc(O)n(Cc3ccc(Oc4cccc(CNC5COC5)n4)cc3)c2n1 [Ic-03] | 7.11
CCCCOc1nc(N)c2nc(O)n(Cc3ccc(Oc4cccc(CNCCO)n4)cc3)c2n1 [Ic-05] | 7.35
CCCCOc1nc(N)c2nc(O)n(Cc3ccc(Oc4cccc(CNCCOC)n4)cc3)c2n1 [Ic-06] | 7.55

Compound | pEC50
CCCCOc1nc(N)c2nc(O)n(Cc3ccc(Oc4cccc(CNCCC#N)n4)cc3)c2n1 [Ic-07] | 6.88
CCCCOc1nc(N)c2nc(O)n(Cc3ccc(Oc4ccc(CNCC(C)C)nc4)nc3)c2n1 [Id-01] | 7.55
CCCCOc1nc(N)c2nc(O)n(Cc3ccc(Oc4ccc(CNC5CCC5)nc4)nc3)c2n1 [Id-02] | 7.60
CCCCOc1nc(N)c2nc(O)n(Cc3ccc(Oc4ccc(CNC5CCOCC5)nc4)nc3)c2n1 [Id-03] | 7.85
CCCCOc1nc(N)c2nc(O)n(Cc3ccc(Oc4ccc(CNCCOC)nc4)nc3)c2n1 [Id-04] | 7.89
CCCCOc1nc(N)c2nc(O)n(Cc3ccc(Oc4ccc(CNCCO)nc4)nc3)c2n1 [Id-05] | 7.92
CCCCOc1nc(N)c2nc(O)n(Cc3ccc(Oc4ccc(CNCC(F)F)nc4)nc3)c2n1 [Id-06] | 7.00
CCCCOc1nc(N)c2nc(O)n(Cc3ccc(Oc4ccc(CN5CCOCC5)nc4)nc3)c2n1 [Id-07] | 7.82
CCCCOc1nc(N)c2nc(O)n(Cc3ccc(Oc4ccc(CN5CCN(C)CC5)nc4)nc3)c2n1 [Id-08] | 7.68
CCCCOc1nc(N)c2nc(O)n(Cc3ccc(Oc4ccc(CNCC(C)C)cc4)c(F)c3)c2n1 [Ie-01] | 7.59
CCCCOc1nc(N)c2nc(O)n(Cc3ccc(Oc4ccc(CNC5CCC5)cc4)c(F)c3)c2n1 [Ie-02] | 7.72
CCCCOc1nc(N)c2nc(O)n(Cc3ccc(Oc4ccc(CN5CCC5)cc4)c(F)c3)c2n1 [Ie-03] | 7.72
CCCCOc1nc(N)c2nc(O)n(Cc3ccc(Oc4ccc(CNCC(F)F)cc4)c(F)c3)c2n1 [Ie-04] | 6.34
CCCCOc1nc(N)c2nc(O)n(Cc3ccc(Oc4ccc(CNCCOC)cc4)c(F)c3)c2n1 [Ie-05] | 7.62
CCCCOc1nc(N)c2nc(O)n(Cc3ccc(Oc4ccc(CNCCO)cc4)c(F)c3)c2n1 [Ie-06] | 7.54
CCCCOc1nc(N)c2nc(O)n(Cc3ccc(Oc4ccc(CNCCS(C)(=O)=O)cc4)c(F)c3)c2n1 [Ie-07] | 6.89
CCCCOc1nc(N)c2nc(O)n(Cc3ccc(Oc4ccc(CNC5CCOCC5)cc4)c(F)c3)c2n1 [Ie-08] | 8.12
CCCCOc1nc(N)c2nc(O)n(Cc3ccc(Oc4ccc(CN5CCOCC5)cc4)c(F)c3)c2n1 [Ie-09] | 6.60
CCCCOc1nc(N)c2nc(O)n(Cc3ccc(Oc4ccc(CN5CCN(C)CC5)cc4)c(F)c3)c2n1 [Ie-10] | 7.12
CCCCOc1nc(N)c2nc(O)n(Cc3ccc(Nc4ccc(CNCC(C)C)cc4)nc3)c2n1 [If-01] | 7.62
CCCCOc1nc(N)c2nc(O)n(Cc3ccc(Nc4ccc(CNCCO)cc4)nc3)c2n1 [If-02] | 7.14
CCCCOc1nc(N)c2nc(O)n(Cc3ccc(Nc4ccc(CNC5CCOCC5)cc4)nc3)c2n1 [If-03] | 7.85
CCCCOc1nc(N)c2nc(O)n(Cc3ccc(Nc4ccc(CNC5CCC5)cc4)nc3)c2n1 [If-04] | 8.60
CCCCOc1nc(N)c2nc(O)n(Cc3ccc(Nc4ccc(CNCC(F)F)cc4)nc3)c2n1 [If-05] | 7.77
CCCCOc1nc(N)c2nc(O)n(Cc3ccc(Nc4ccc(CN5CCCC5)cc4)nc3)c2n1 [If-06] | 8.42
CCCCOc1nc(N)c2nc(O)n(Cc3ccc(Nc4ccc(CNCC(C)(C)O)cc4)nc3)c2n1 [If-07] | 8.11
CCCCOc1nc(N)c2nc(O)n(Cc3ccc(Nc4ccc(CNCCS(C)(=O)=O)cc4)nc3)c2n1 [If-09] | 7.17
